As a reminder, the inhibition is the drop in the measured response relative to a control, in per cent. One may read the mortality as the percentage killed.

What all share (format): in vivo
Assay [1] concerns Myzus persicae (Green Peach Aphid). Briefly: Myzus persicae (Green Peach Aphid) Feeding/Contact Activity, eggplant leaf discs. The conditions noted are these: foliar, 144 h, application rate of 200 ppm, eggplant leaf discs sprayed, aphid population of mixed ages, 6 days after infestation, read-out: growth inhibition. From the text:
Example B8: Myzus persicae (Green Peach Aphid) Feeding/Contact Activity Eggplant leaf discs were placed onto agar in a 24-well microtiter plate and sprayed with aqueous test solutions prepared from 10′000 ppm DMSO stock solutions. After drying, the leaf discs were infested with an aphid population of mixed ages. […]

Assay [2] shares this test system. Briefly: Myzus persicae (Green Peach Aphid): Feeding/Contact Activity, sunflower leaf discs. To be noted: foliar, 144 h, application rate of 200 ppm, sunflower leaf discs sprayed, aphid population of mixed ages, 6 days after infestation. Here is the method:
Example B6: Myzus persicae (Green Peach Aphid):Feeding/Contact Activity
Sunflower leaf discs were placed onto agar in a 24-well microtiter plate and sprayed with aqueous test solutions prepared from 10′000 ppm DMSO stock solutions. After drying, the leaf discs were infested with an aphid population of mixed ages. The samples were assessed for mortality 6 days after infestation.

Assay [3] relates to Plutella xylostella (Diamond back moth). Briefly: Plutella xylostella (Diamond back moth). To be noted: 192 h, application rate of 200 ppm, artificial diet treated by pipetting, Plutella eggs, 8 days after infestation, read-out: effect in at least one of the two categories (mortality or growth inhibition). Here is the method:
After drying, Plutella eggs were pipetted through a plastic stencil onto a gel blotting paper and the plate was closed with it. The samples were assessed for mortality and growth inhibition in comparison to untreated samples 8 days after infestation.

Assay [4] has as its system Tetranychus urticae (Two-Spotted Spider Mite). Briefly: Tetranychus urticae (Two-Spotted Spider Mite): Feeding/Contact Activity. The conditions noted are these: foliar, 192 h, application rate of 200 ppm, bean leaf discs sprayed, mite population of mixed ages (mobile stages), 8 days after infestation. Here is the method:
Example B11: Tetranychus urticae (Two-Spotted Spider Mite):Feeding/Contact Activity
Bean leaf discs on agar in 24-well microtiter plates were sprayed with aqueous test solutions prepared from 10,000 ppm DMSO stock solutions. After drying the leaf discs were infested with a mite population of mixed ages. The samples were assessed for mortality on mixed population (mobile stages) 8 days after infestation.

Assay [5] deals with Myzus persicae (Green Peach Aphid). Briefly: Myzus persicae (Green Peach Aphid). Intrinsic Activity. The conditions noted are these: 120 h, test rate of 12 ppm, mixed with sucrose solution, feeding through Parafilm, 5 days after infestation. From the text:
Example B7: Myzus persicae (Green Peach Aphid). Intrinsic Activity
Test compounds prepared from 10′000 ppm DMSO stock solutions were applied by pipette into 24-well microtiter plates and mixed with sucrose solution. The plates were closed with a stretched Parafilm. A plastic stencil with 24 holes was placed onto the plate and infested pea seedlings were placed directly on the Parafilm. The infested plate was closed with a gel blotting paper and another plastic stencil and then turned upside down. The samples were assessed for mortality 5 days after infestation.

For assay [6], the system named is Frankliniella occidentalis (Western Flower Thrips). Briefly: Frankliniella occidentalis (Western Flower Thrips) Feeding/Contact Activity, bean leaf discs. The conditions noted are these: foliar, 96 h, application rate of 200 ppm, bean leaf discs sprayed, population of mixed ages, 4 days after infestation, read-out: growth inhibition. Here is the method: Example B5: Frankliniella occidentalis (Western Flower Thrips) Feeding/Contact Activity Bean leaf discs were placed on agar in 24-well microtiter plates and sprayed with aqueous test solutions prepared from […] stock solutions. After drying the leaf discs were infested with a Frankliniella population of mixed ages. The samples were assessed for mortality 4 days after infestation.

Assay [7] concerns Diabrotica balteata (Corn root worm). Briefly: Diabrotica balteata (Corn root worm). The conditions noted are these: 96 h, application rate of 200 ppm, maize sprouts sprayed, L2 larvae, 4 days after infestation, read-out: effect in at least one of the two categories (mortality or growth inhibition). Here is the method:
Example B2: Diabrotica balteata (Corn root worm)
Maize sprouts placed onto an agar layer in 24-well microtiter plates were treated with aqueous test solutions prepared from 10′000 ppm DMSO stock solutions by spraying. After drying, the plates were infested with L2 larvae (6 to 10 per well). The samples were assessed for mortality and growth inhibition in comparison to untreated samples 4 days after infestation.

Consider `C[C@@H](COc1ccc(Cl)c(CNC(=O)C2CC2)c1)NS(=O)(=O)C(F)(F)F` [P-2], for which the inhibition at 200 ppm in assay [1] was not below 80%. Besides, the mortality at 200 ppm in assay [2] and in assay [4] was not below 80% each time. Besides, the percent effect (mortality or growth inhibition) at 200 ppm in assay [3] is not below 80%. The mortality at 12 ppm in assay [5] is not below 80%. In turn, `CCC(=O)NC(C)(C)c1cc(OC[C@H](C)NS(=O)(=O)C(F)(F)F)ccc1Cl` [P-15, N-[1-[2-chloro-5-[(2S)-2-(trifluoromethylsul-fonylamino)propoxy]phenyl]-1-methylethyl] propanamide] came in with a mortality at 200 ppm in assay [4] not below 80%. Consider `C[C@@H](COc1cnc(Cl)c(CNC(=O)C23CC(C(F)(F)F)(C2)C3)c1)NS(=O)(=O)C(F)(F)F` [P-25, N-[[2-chloro-5-[(2S)-2-(trifluoromethylsulfon-ylamino)propoxy]-3-pyridyl]methyl]-3-(tri-fluoromethyl)bicyclo [1.1.1]pentane-1-carbox-amide], for which the inhibition at 200 ppm in assay [6] was not below 80%. As to `C[C@@H](COc1cnc(Cl)c(CNC(=O)C2CCC2(F)F)c1)NS(=O)(=O)C(F)(F)F` (some centres unmarked) [P-22], the inhibition at 200 ppm in assay [6] is not below 80%. Take `CCC(=O)NCc1cc(OC[C@H](C)NS(=O)(=O)C(F)F)ccc1Cl` [P-11]: the percent effect (mortality or growth inhibition) at 200 ppm in assay [3] is not below 80%. In assay [5], this molecule came in with a mortality at 12 ppm not below 80%. On to `C[C@@H](COc1cnc(Cl)c(CNC(=O)C(F)F)c1)NS(=O)(=O)C(F)(F)F` [P-32, N-[[2-chloro-5-[(2S)-2-(trifluoromethylsul-fonylamino)propoxy]-3-pyridyl]methyl]-2,2-difluoro-acetamide], for which the mortality at 12 ppm in assay [5] was not below 80%. With `CCC(=O)NCc1cc(OC[C@H](C)NS(=O)(=O)c2cnc(Cl)c(Cl)c2)ccc1Cl` [P-13, N-[[2-chloro-5-[(2S)-2-[(5,6-dichloro-3-pyridyl)sulfonylamino]propoxy]phenyl]meth-yl]propanamide], the percent effect (mortality or growth inhibition) at 200 ppm in assay [3] and in assay [7] was not below 80% in each case. `CCC(=O)NCc1cc(OC[C@H](C)NS(=O)(=O)C(F)(F)F)cnc1Cl` [P-1] came in with a mortality at 200 ppm in assay [2] not below 80%. In assay [5], this molecule came in with a mortality at 12 ppm not below 80%. On to `C[C@@H](COc1cnc(Cl)c(CNC(=O)CC2CC2)c1)NS(=O)(=O)C(F)(F)F` [P-21, N-[[2-chloro-5-[(2S)-2-(trifluoromethylsul-fonylamino)propoxy]-3-pyridyl]methyl]-2-cyclopropyl-acetamide], for which the inhibition at 200 ppm in assay [1] was not below 80%. Also, in assay [5], the mortality at 12 ppm was not below 80%. Take `COCC(=O)NCc1cc(OC[C@H](C)N(C(=O)COC)S(=O)(=O)C(F)(F)F)ccc1Cl` [P-16, N-[[2-chloro-5-[(2S)-2-[(2-methoxyacetyl)-(trifluoromethylsulfon-yl)amino]propoxy]phenyl]methyl]-2-methoxy-acetamide]: in assay [1], the inhibition at 200 ppm is not below 80%. Besides, the mortality at 12 ppm in assay [5] is not below 80%. Turning to `CCC(=O)NCc1cc(OC[C@H](C)NS(=O)(=O)C(Cl)Cl)ccc1Cl` [P-10], the mortality at 12 ppm in assay [5] is not below 80%. `C[C@@H](COc1ccc(Cl)c(CNC(=O)C2CCC2)c1)NS(=O)(=O)C(F)(F)F` [P-7]: the percent effect (mortality or growth inhibition) at 200 ppm in assay [3] is not below 80%. This molecule also returned a mortality at 12 ppm in assay [5] not below 80%. Regarding `C[C@@H](COc1cnc(Cl)c(CNC(=O)CC2CC2(Cl)Cl)c1)NS(=O)(=O)C(F)(F)F` (some centres unmarked) [P-30], the inhibition at 200 ppm in assay [1] is not below 80%. With `CCC(=O)NCc1cc(OC[C@H](C)N(COC)S(=O)(=O)C(F)(F)F)cnc1Cl` [P-5, N-[[2-chloro-5-[(2S)-2-[methoxymethyl(tri-fluoromethylsulfonyl)-amino]propoxy]-3-pyridyl]methyl]propan-amide], the inhibition at 200 ppm in assay [1] is not below 80%. Also, the mortality at 200 ppm in assay [2] is not below 80%. For the same molecule, in assay [5], the mortality at 12 ppm was not below 80%. Consider `C[C@@H](COc1ccc(Cl)c(CNC(=O)C2CCC2)c1)N(C(=O)C1CCC1)S(=O)(=O)C(F)(F)F` [P-8], for which the percent effect (mortality or growth inhibition) at 200 ppm in assay [3] is not below 80%. The same molecule came in with a mortality at 12 ppm in assay [5] not below 80%. The molecule `C[C@@H](COc1ccc(Cl)c(CNC(=O)C2CSC2)c1)NS(=O)(=O)C(F)(F)F` [P-6] gave a mortality at 12 ppm in assay [5] not below 80%. Regarding `C[C@@H](COc1cnc(Cl)c(CNC(=O)C2CC2)c1)NS(=O)(=O)C(F)(F)F` [P-9, N-[[2-chloro-5-[(2S)-2-(trifluoromethylsulfon-ylamino)propoxy]-3-pyridyl]methyl]cyclo-propanecarboxamide], the percent effect (mortality or growth inhibition) at 200 ppm in assay [3] is not below 80%. In assay [5], this molecule came in with a mortality at 12 ppm not below 80%. As to `C[C@@H](COc1cnc(Cl)c(CNC(=O)C2(C#N)CC2)c1)NS(=O)(=O)C(F)(F)F` [P-23, N-[[2-chloro-5-[(2S)-2-(trifluoromethylsul-fonylamino)propoxy]-3-pyridyl]methyl]-1-cyano-cyclopropane-carboxamide], in assay [1], the inhibition at 200 ppm is not below 80%.

In the case of `C[C@@H](COc1cnc(Cl)c(CNC(=O)C(F)(Cl)Cl)c1)NS(=O)(=O)C(F)(F)F` [P-29, 2,2-dichloro-N-[[2-chloro-5-[(2S)-2-(trifluoromethylsul-fonylamino)propoxy]-3-pyridyl]methyl]-2-fluoro-acetamide], the inhibition at 200 ppm in assay [1] is not below 80%. Consider `CCC(=O)NC1(c2cc(OC[C@H](C)NS(=O)(=O)C(F)(F)F)ccc2Cl)CC1` [P-14, N-[1-[2-chloro-5-[(2S)-2-(trifluoromethylsul-fonylamino)propoxy]phenyl]cyclopropyl] propanamide], for which the percent effect (mortality or growth inhibition) at 200 ppm in assay [7] was not below 80%. As to `CCC(=O)NCc1cc(OC[C@H](C)NS(=O)(=O)c2ccc(C#N)c(Cl)c2)ccc1Cl` [P-12, N-[[2-chloro-5-[(2S)-2-[(3-chloro-4-cyano-phenyl)sulfonylamino]propoxy]phenyl]meth-yl]propanamide], the percent effect (mortality or growth inhibition) at 200 ppm in assay [7] is not below 80%.

Regarding `C[C@@H](COc1cnc(Cl)c(CNC(=O)C2CC(F)(F)C2)c1)NS(=O)(=O)C(F)(F)F` [P-35, N-[[2-chloro-5-[(2S)-2-(trifluoromethylsul-fonylamino)propoxy]-3-pyridyl]methyl]-3,3-difluoro-cyclobutane-carboxamide], the inhibition at 200 ppm in assay [1] and in assay [6] was not below 80% each time. Consider `C[C@@H](COc1cnc(Cl)c(CNC(=O)C2CCC2)c1)NS(=O)(=O)C(F)(F)F` [P-24], for which the inhibition at 200 ppm in assay [1] and in assay [6] was not below 80% each time. In assay [5], this molecule gave a mortality at 12 ppm not below 80%.

For `C[C@@H](COc1cnc(Cl)c(CNC(=O)C2CCCO2)c1)NS(=O)(=O)C(F)(F)F` (some centres unmarked) [P-27], the inhibition at 200 ppm in assay [1] was not below 80%.

The values above are taken from patent US20260215423A1, “NOVEL CARBOXAMIDE AND SULFONAMIDE PESTICIDAL COMPOUNDS” (SYNGENTA CROP PROTECTION AG, priority 2023, published 2026).
